In article PMC8318231, “Rate-of-Kill (RoK) assays to triage large compound sets for Chagas disease drug discovery: Application to GSK Chagas Box” (PLoS Neglected Tropical Diseases, 2021):
Where “and” joins values, the source holds several entries; their conditions need not be identical. Equal values may be shown once.

Experiments:
[1] = system: T. cruzi intracellular amastigotes in H9c2 cells; assay: RoK combination assay with BNZ; format: cell-based, Trypanosoma cruzi
Procedure: The assay was performed following the same experimental procedure mentioned above in the RoK assay. The infected H9c2 cells were treated with final 10 and 50 μM concentrations of BNZ and DMSO before being dispensed into the plates containing the compounds. For the combination with 50 μM BNZ, two plates were incubated for 4 and 24 hours respectively before being fixed. For the combinations with 10 μM BNZ and with DMSO, four plates for each condition were incubated for 4, 24, 48 and 72 hours before being fixed.

[2] = system: T. cruzi Tulahuen trypomastigotes; assay: T. cruzi trypomastigote assay (Cell Titer-Glo viability, ATP luminescence); format: cell-based, Trypanosoma cruzi; conditions: for Trypomastigotes pIC50 48 hours: 48 hours incubation; for Trypomastigotes pIC50 48 hours / Trypomastigotes pIC50 72 hours: pIC50 = -log10 IC50 in molar units; for Trypomastigotes pIC50 72 hours: 72 hours incubation; for 72 pIC50: 72 h
Procedure, shortened: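 Compounds were tested in dose response or once at a final 5 μM against 5 × 10^4 trypomastigotes per well (DMEM, 2% FBS), collected on days 5–8 from LLC-MK2 infected cultures. ATP luminescence via CellTiter-Glo reports live parasites; DMSO defines 0% and cell-free wells 100% effect.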

[3] = system: H9c2 (rat cardiomyocytes); assay: RoK assay, number of host cells nuclei (drug-related cytotoxicity, H9c2 output, Cmin_Tox); conditions: H9c2 host cells
Procedure: For this high-content intracellular imaging assay, H9c2 cells were seeded in 225 cm^2 T- FLASK in DMEM with 10% FBS for 4 h to allow attachment. T. cruzi trypomastigotes, collected at days 5 to 8 after infection from LLC-MK2 parasite infected cultures, were allowed to swim out for 4 h at 37°C from a centrifuged pellet (1,600 x g / 10 min). Trypomastigotes were then collected and counted in a CASY Cell Counter using the 60 μm capillary. […] Cells were washed once with PBS before incubation of the infected H9c2 monolayer with trypsin (Life-Technologies) to detach cells from the flask. Cells were counted in a CASY Cell Counter, using the 150 μm capillary, and their density set at 5 x 10^4 cells/mL in supplemented DMEM. Infected H9c2 were dispensed into 384-well plates at 50 μL per well using a Multidrop Combi dispenser. Control wells used to determine a 100% parasitic growth (full 6th column of each plate) were left untreated, whereas not infected cells were added in the control wells used as 0% parasite growth (or 100% parasite growth inhibition; full 18th column of each plate). The four plates corresponding to each RoK assay were predispensed for the same mother plate. […] Cultures were then fixed and stained with 50 μL per well of a PBS solution containing 4% formaldehyde and 2 μM DRAQ5 DNA dye (BioStatus, UK). Then plates were read in a PerkinElmer Opera Phenix using a 20x objective, 3 fields per well. DRAQ5 signal was detected using 640 nm excitation laser and a 690/50 nm emission detection filter. Automated image analysis was performed with a script developed on Acapella High Content Imaging and Analysis Software (PerkinElmer). Two outputs were provided for each sample well: (1) number of host cells nuclei to determine drug-related cytotoxicity (aka H9c2) and (2) number of amastigotes per cell as infection level measurement (aka AM/CELL). Each output is plotted as a time course for each compound at every concentration. This assay was adapted from Alonso-Padilla et al. and Peña et al..
(§1) • ME (Maximum Effect) is the maximum percentage of parasite burden reduction reached by any compound concentration. Compounds that decrease the initial parasite load will show a positive value of ME, whereas compounds that allow the progression of infection will render a negative ME value. […] It is calculated for the MCC50 (t50%_MCC50) and for the maximum concentration (t50%_Cmax). […] The value of this parameter is not either interpolated or extrapolated, and it refers to the first experimental time-course point at which a 50% of effect is reached or exceeded. • tlag defines the time elapsed for one particular concentration to reduce parasite burden between two consecutive points at any moment of the time course. It is calculated for the MCC50 (tlag_MCC50) and for the maximum concentration (tlag_Cmax). The value of this parameter is not either interpolated or extrapolated, and it refers to the first experimental time-course point of a positive slope in the normalised plot (i.e. %Cidal_Response). • Cmin_Tox (Minimal CytoToxic Concentration) is the lowest compound concentration that is reducing the number of host mammalian cells below 50% of initial cell density. Cytotoxic compounds may mislead a bona fide antiparasitic action. Therefore, this descriptor is used to flag this kind of compounds and warn about the genuine meaning of the rest of descriptors.

TcCYP51 = conditions: formerly reported; cited from earlier work
[4] = system: T. cruzi intracellular amastigotes in H9c2 cells; assay: Rate-of-Kill (RoK) high-content imaging assay, amastigotes per cell (AM/CELL) and curve descriptors; format: cell-based, Trypanosoma cruzi; conditions: maximum percentage of parasite burden reduction reached by any concentration, 24 hours
Procedure: For this high-content intracellular imaging assay, H9c2 cells were seeded in 225 cm^2 T- FLASK in DMEM with 10% FBS for 4 h to allow attachment. T. cruzi trypomastigotes, collected at days 5 to 8 after infection from LLC-MK2 parasite infected cultures, were allowed to swim out for 4 h at 37°C from a centrifuged pellet (1,600 x g / 10 min). Trypomastigotes were then collected and counted in a CASY Cell Counter using the 60 μm capillary. Trypomastigotes, in supplemented DMEM, were added to H9c2 cultures in a multiplicity of infection (MOI) of 8 and incubated for 18 h. Cells were washed once with PBS before incubation of the infected H9c2 monolayer with trypsin (Life-Technologies) to detach cells from the flask. Cells were counted in a CASY Cell Counter, using the 150 μm capillary, and their density set at 5 x 10^4 cells/mL in supplemented DMEM. Infected H9c2 were dispensed into 384-well plates at 50 μL per well using a Multidrop Combi dispenser. Control wells used to determine a 100% parasitic growth (full 6th column of each plate) were left untreated, whereas not infected cells were added in the control wells used as 0% parasite growth (or 100% parasite growth inhibition; full 18th column of each plate). The four plates corresponding to each RoK assay were predispensed for the same mother plate. […] Cultures were then fixed and stained with 50 μL per well of a PBS solution containing 4% formaldehyde and 2 μM DRAQ5 DNA dye (BioStatus, UK). Then plates were read in a PerkinElmer Opera Phenix using a 20x objective, 3 fields per well. DRAQ5 signal was detected using 640 nm excitation laser and a 690/50 nm emission detection filter. Automated image analysis was performed with a script developed on Acapella High Content Imaging and Analysis Software (PerkinElmer). Two outputs were provided for each sample well: (1) number of host cells nuclei to determine drug-related cytotoxicity (aka H9c2) and (2) number of amastigotes per cell as infection level measurement (aka AM/CELL). Each output is plotted as a time course for each compound at every concentration. This assay was adapted from Alonso-Padilla et al. and Peña et al..
To identify and classify the different compounds, the number of amastigotes per cell (AM/CELL) raw data obtained in rate of kill assay are normalised using the average of C1 (infected cells) at time 4 hours as 0% effect and the average of C2 (non-infected cells) for each time as 100% effect, according to the following Eq 1: %CIDALRESPONSE=100*[Avg_C14h-RawData]/[Avg_C14h-Avg_C2] (1)
as §1, with “action.” for “action. Therefore, this descriptor is used to flag this kind of compounds and warn about the genuine meaning of the rest of descriptors.”

**Q.** With O=C(Cn1ccnc1[N+](=O)[O-])NCc1ccccc1 [BNDZ 10] as the compound, how does the AM/CELL ([1]; combo BNDZ 10 with unnamed compound at Concentration 16.6667, time 4) read?
**A.** 2.035 and 2.023

**Q.** What about the AM/CELL ([1]; combo BNDZ 10 with unnamed compound at Concentration 16.6667, time 24) of the same compound?
**A.** 1.123 and 1.3558

**Q.** And the AM/CELL ([1]; combo BNDZ 10 with unnamed compound at Concentration 16.6667, time 48)?
**A.** 0.3934 and 0.4677

**Q.** And the AM/CELL ([1]; combo BNDZ 10 with unnamed compound at Concentration 16.6667, time 72)?
**A.** 0.5411 and 0.6092

**Q.** What about the AM/CELL ([1]; combo BNDZ 10 with unnamed compound at Concentration 50, time 4) of the same compound?
**A.** 1.931 and 1.78

**Q.** What about the AM/CELL ([1]; combo BNDZ 10 with unnamed compound at Concentration 50, time 24) of the same compound?
**A.** 0.8406 and 1.092

**Q.** What about the AM/CELL ([1]; combo BNDZ 10 with unnamed compound at Concentration 50, time 48) of the same compound?
**A.** 0.412 and 0.3872

**Q.** What about the AM/CELL ([1]; combo BNDZ 10 with unnamed compound at Concentration 50, time 72) of the same compound?
**A.** 0.6445 and 0.5238

**Q.** With Cc1ccc(S(=O)(=O)Nc2ccc(CN3CCN(C(=O)c4cccc(C#N)c4)CC3)cc2)cc1.O=C(O)C(F)(F)F [TCMDC-143497] as the compound, how does the “Trypomastigotes pIC50 48 hours” value [2] read?
**A.** < 4.3

**Q.** And the “Trypomastigotes pIC50 72 hours” value [2]?
**A.** 4.9

**Q.** And the “Cmin_Tox” value [3]?
**A.** >50 µM

**Q.** And the “CYP51 pIC50” value (TcCYP51)?
**A.** < 4

**Q.** Which “ME 24h (maximum effect at 24 hours, intracellular amastigotes)” value [4] does the source give for CNc1cc(Cn2c(C(=O)c3cc(C)cc(Cl)c3)c(C(C)C)c(=O)[nH]c2=O)ccn1 [TCMDC-143637] here?
**A.** 23.6593%

**Q.** And the “Trypomastigotes pIC50 48 hours” value [2]?
**A.** < 4.3

**Q.** What about the “Trypomastigotes pIC50 72 hours” value [2] of the same compound?
**A.** < 4.3

**Q.** And the “72 pIC50 (trypomastigotes, raw data of Fig 1D)” value ([2]; 72 hours, plotted values, censored values given without sign)?
**A.** < 4.3

**Q.** What about the “48 pIC50” value ([2]; trypomastigote assay, 48 h, figure 1A) of the same compound?
**A.** < 4.3

**Q.** What about the “72 pIC50” value ([2]; trypomastigote assay, figure 1A) of the same compound?
**A.** < 4.3

**Q.** What about the “72 pIC50” value ([2]; trypomastigote assay, figure 1B) of the same compound?
**A.** < 4.3

**Q.** And the “CYP51 pIC50” value (TcCYP51)?
**A.** 7.5
